Results published in ChEMBL document CHEMBL5137023, “Discovery of 2H-benzo[b][1,4]oxazin-3(4H)-one derivatives as potent and selective CDK9 inhibitors that enable transient target engagement for the treatment of hematologic malignancies” (Eur J Med Chem, 2022).
≈ marks a conversion by molar mass, not a printed value. Calls of active or inactive are those of the source. The rule behind the calls is not given here.

Tests used:
[1] = MRT(0 to infinity) in Sprague-Dawley rat at 1 mg/kg, iv bolus injection measured upto 24 hrs by LC-MS/MS analysis; assay type: ADME, organism-based; details: in vivo
CDK9/cyclin T1 = CDK9/cyclin T1 (Homo sapiens, UniProt P50750); assay: Inhibition of CDK9/Cyclin T1 (unknown origin) preincubated for 10 mins followed by ATP and CTD3 addition and measured after 30 mins by mobility shift assay; assay type: protein-complex assay
[2] = Initial plasma concentration in Sprague-Dawley rat at 1 mg/kg, iv bolus injection measured upto 24 hrs by LC-MS/MS analysis; assay type: ADME, organism-based
[3] = Volume of distribution at steady state in Sprague-Dawley rat at 1 mg/kg, iv bolus injection measured upto 24 hrs by LC-MS/MS analysis; assay type: ADME, organism-based; details: in vivo, read-out: Vdss
[4] = AUC(0 to infinity) in Sprague-Dawley rat at 1 mg/kg, iv bolus injection measured upto 24 hrs by LC-MS/MS analysis; assay type: ADME, organism-based; set-up: time < 24 hrs, dose 1 mg/kg, route iv; details: in vivo
[5] = AUC(0 to t) in Sprague-Dawley rat at 1 mg/kg, iv bolus injection measured upto 24 hrs by LC-MS/MS analysis; assay type: ADME, organism-based; set-up: dose 1 mg/kg, time < 24 hrs, route iv; details: in vivo
[6] = Clearance in Sprague-Dawley rat at 1 mg/kg, iv bolus injection measured upto 24 hrs by LC-MS/MS analysis; assay type: ADME, organism-based; details: in vivo
MV4-11 [7] = assay: Antiproliferative activity against human MV4-11 cells assessed as inhibition of cell growth incubated for 72 hrs by CTG- luminescence assay; assay type: functional, cell-based; details: MV4-11, 72 h
[8] = Kinetic solubility of the compound in pH 7.4 PBS buffer incubated for 24 hrs under shaking condition by HPLC analysis; assay type: physicochemical; details: read-out: Kinetic_solubility
[9] = Half life in Sprague-Dawley rat at 1 mg/kg, iv bolus injection measured upto 24 hrs by LC-MS/MS analysis; assay type: ADME, organism-based; details: in vivo
[10] = Elimination rate constant in Sprague-Dawley rat at 1 mg/kg, iv bolus injection measured upto 24 hrs by LC-MS/MS analysis; assay type: ADME, organism-based; details: in vivo
[11] = MRT(0 to t) in Sprague-Dawley rat at 1 mg/kg, iv bolus injection measured upto 24 hrs by LC-MS/MS analysis; assay type: ADME, organism-based; details: in vivo
MV4-11 [12] = assay: Antiproliferative activity against human MV4-11 cells assessed as inhibition of cell growth at 0.37 uM incubated for 72 hrs by CTG- luminescence assay relative to control; assay type: functional
MV4-11 [13] = assay: Downregulation of Mcl-1 expression in human MV4-11 cells at 1 uM incubated for 24 hrs by Western blot analysis; assay type: functional, cell-based
MV4-11 [14] = assay: Inhibition of RNA polymerase 2 phosphorylation at Ser2 residue in human MV4-11 cells at 1 uM incubated for 24 hrs by Western blot analysis; assay type: cell-based
MV4-11 [15] = assay: Downregulation of c-Myc expression in human MV4-11 cells at 1 uM incubated for 24 hrs by Western blot analysis; assay type: functional, cell-based

Chain of CDK9/cyclin T1 (O60563 whole entry): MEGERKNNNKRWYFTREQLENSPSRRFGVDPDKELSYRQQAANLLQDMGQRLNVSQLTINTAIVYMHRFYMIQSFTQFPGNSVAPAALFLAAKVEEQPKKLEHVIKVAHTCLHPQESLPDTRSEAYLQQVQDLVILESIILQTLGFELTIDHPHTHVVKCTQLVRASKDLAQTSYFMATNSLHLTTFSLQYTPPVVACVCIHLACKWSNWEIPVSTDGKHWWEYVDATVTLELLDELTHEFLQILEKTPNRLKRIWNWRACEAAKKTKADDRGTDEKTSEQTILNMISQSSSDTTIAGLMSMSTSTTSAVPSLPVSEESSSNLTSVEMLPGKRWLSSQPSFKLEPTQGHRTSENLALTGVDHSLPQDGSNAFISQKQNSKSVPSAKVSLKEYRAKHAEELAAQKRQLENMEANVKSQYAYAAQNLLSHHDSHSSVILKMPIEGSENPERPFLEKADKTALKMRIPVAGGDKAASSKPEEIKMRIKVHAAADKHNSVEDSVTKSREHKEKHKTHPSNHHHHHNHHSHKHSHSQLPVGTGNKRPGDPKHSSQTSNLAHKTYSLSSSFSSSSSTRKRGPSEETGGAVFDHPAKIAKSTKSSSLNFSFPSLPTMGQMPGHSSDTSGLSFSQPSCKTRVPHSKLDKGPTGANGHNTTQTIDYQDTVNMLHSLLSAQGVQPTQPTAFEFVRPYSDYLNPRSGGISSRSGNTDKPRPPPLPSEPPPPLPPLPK
Chain of CDK9/cyclin T1 (P50750 whole entry): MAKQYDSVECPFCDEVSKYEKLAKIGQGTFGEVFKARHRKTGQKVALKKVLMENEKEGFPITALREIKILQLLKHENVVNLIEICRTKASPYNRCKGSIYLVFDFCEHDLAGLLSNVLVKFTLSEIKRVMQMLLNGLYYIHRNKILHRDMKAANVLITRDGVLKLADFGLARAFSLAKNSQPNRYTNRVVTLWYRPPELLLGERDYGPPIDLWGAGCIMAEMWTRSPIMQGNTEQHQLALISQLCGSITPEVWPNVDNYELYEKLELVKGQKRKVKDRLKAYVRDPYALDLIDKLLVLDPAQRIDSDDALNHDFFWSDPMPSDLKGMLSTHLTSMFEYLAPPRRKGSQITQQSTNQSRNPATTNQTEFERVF

Structure (SMILES)	IC50 (CDK9/cyclin T1) [nM]	IC50 (MV4-11 [7]) [nM]	also measured
CCN1C(=O)COc2c(CN3CCN(S(C)(=O)=O)CC3)cc(Nc3ncc(F)c(-c4ccc(F)cc4OC)n3)cc21	3	15	MRT inf [1]: 14.8 min; C0 at 24 h [2]: 1060 ng/mL; Vd [3]: 1.01 L/kg; AUC(0-inf) [4]: 246 ng·h/mL; AUC(0-t) at 24 h [5]: 245 ng·h/mL; clearance [6]: 68.1 mL/min/kg; solubility kinetic at 24 h [8]: 30.5 µg/mL (≈ 51.8 µM); half-life [9]: 15.9 min; k el at 24 h [10]: 0.000728 s⁻¹; MRT last at 24 h [11]: 14.4 min
CCN1C(=O)COc2c(CN3CCOCC3)cc(Nc3nccc(-c4cn(C)c5ccccc45)n3)cc21	39	–	–
CCN1C(=O)COc2c(CN3CCOCC3)cc(Nc3nccc(-c4cccnc4)n3)cc21	6.7	306	–
CCN1CCN(Cc2cc(Nc3ncc(F)c(-c4ccc(F)cc4OC)n3)cc3c2OCC(=O)N3CC)CC1	4.4	142	–
CCN1C(=O)COc2c(CN3CCN(C)CC3)cc(Nc3ncc(F)c(-c4ccc(F)cc4OC)n3)cc21	5.4	253	–
CCN1C(=O)COc2c(CN(C)CCN(C)C)cc(Nc3ncc(F)c(-c4ccc(F)cc4OC)n3)cc21	2.2	143	–
CCN1C(=O)COc2c(CN3CCNCC3)cc(Nc3ncc(F)c(-c4ccc(F)cc4OC)n3)cc21	4.2	128	–
CCN1C(=O)COc2c(CN3CCC(N(C)C)C3)cc(Nc3ncc(F)c(-c4ccc(F)cc4OC)n3)cc21 (centres undefined)	3.7	124	–
CCN(CC)Cc1cc(Nc2ncc(F)c(-c3ccc(F)cc3OC)n2)cc2c1OCC(=O)N2CC	2.6	26	MRT inf [1]: 41.3 min; C0 at 24 h [2]: 155 ng/mL; Vd [3]: 6.45 L/kg; AUC(0-inf) [4]: 111 ng·h/mL; AUC(0-t) at 24 h [5]: 107 ng·h/mL; clearance [6]: 168 mL/min/kg; solubility kinetic at 24 h [8]: 3.9 µg/mL (≈ 7.84 µM); half-life [9]: 29.8 min; k el at 24 h [10]: 0.0004 s⁻¹; MRT last at 24 h [11]: 36.7 min
CCN1C(=O)COc2c(CN3CCSCC3)cc(Nc3ncc(F)c(-c4ccc(F)cc4OC)n3)cc21	3.6	130	–
CCN1C(=O)COc2c(CN3CCS(=O)(=O)CC3)cc(Nc3ncc(F)c(-c4ccc(F)cc4OC)n3)cc21	6	–	inhibition at 0.37 µM (MV4-11 [12]): 15%
CCN1C(=O)COc2c(CN(C)CCOC)cc(Nc3ncc(F)c(-c4ccc(F)cc4OC)n3)cc21	2.3	65	–
CCN1C(=O)COc2c(CN3CCOCC3)cc(Nc3nccc(-c4ccc5nc(C)n(C(C)C)c5c4)n3)cc21	23	–	–
CCN1C(=O)COc2c(CN3CCOCC3)cc(Nc3nccc(-c4ccc5nn(C)c(C(C)C)c5c4)n3)cc21	21	–	–
CCN1C(=O)COc2c(CN3CCN(C(C)C)CC3)cc(Nc3ncc(F)c(-c4ccc(F)cc4OC)n3)cc21	3.4	149	–
CN1CC[C@H](c2c(O)cc(O)c3c(=O)cc(-c4ccccc4Cl)oc23)[C@H](O)C1	–	–	Activity (MV4-11 [13]): Active; inhibition (MV4-11 [14]): Active; Activity (MV4-11 [15]): Active
CCN1C(=O)COc2c(CN(C)CCNC)cc(Nc3ncc(F)c(-c4ccc(F)cc4OC)n3)cc21	2.5	89	–
CCN1C(=O)COc2c(CN3CCC(N4CCOCC4)CC3)cc(Nc3ncc(F)c(-c4ccc(F)cc4OC)n3)cc21	2.1	109	–
CCN1C(=O)COc2c(CN3CCOCC3)cc(Nc3cc(-c4ccc(F)cc4OC)c(F)cn3)cc21	42	–	–
CCN1C(=O)COc2c(CN3CCOCC3)cc(Nc3ncc(F)c(-c4ccc(F)cc4OC)n3)cc21	1.1	105	–
CCN1C(=O)COc2c(CN3CCOCC3)cc(Nc3nccc(-c4ccc5nnn(C(C)C)c5c4)n3)cc21	13	184	–
CCN1C(=O)COc2c(CN3CCOC[C@H]3C)cc(Nc3ncc(F)c(-c4ccc(F)cc4OC)n3)cc21	1.9	364	–
CCN1C(=O)COc2c(CN3CCOCC3)cc(Nc3nccc(-c4ccc(F)cc4OCc4ccccc4)n3)cc21	> 100	–	–
CCN1C(=O)COc2c(CN3CCOCC3)cc(Nc3nccc(-c4ccc(F)cc4OC)n3)cc21	2.6	228	–
CCN1C(=O)COc2c(CN3CCOCC3)cc(Nc3cc(-c4ccc(F)cc4OC)c(Cl)cn3)cc21	80	–	–
CCN1C(=O)COc2c(CN3CCCCC3)cc(Nc3ncc(F)c(-c4ccc(F)cc4OC)n3)cc21	2.7	50	–
CCN1C(=O)COc2c(CN3CCN(C4COC4)CC3)cc(Nc3ncc(F)c(-c4ccc(F)cc4OC)n3)cc21	1.6	105	–
